Entries after “also recorded” stand apart in the source; their conditions may differ. Where two headings read alike, the source gives them in different places.
Columns and labels:
MCF7 = details: cited from earlier work
A549 = details: cited from earlier work
HT29 cells [1] = system: HT29 cells; parameters: method as in PMID 27002410; details: cited from earlier work
HT29 [2] = details: cited from earlier work
LoVo = details: cited from earlier work
[3] = system: primary colon adenocarcinoma (HT29); assay: MTT viability assay, HT29; format: cell-based, human; details: for CC50 ± SD: HT29, MTT; for CC50 ± SD / CC50: tested 1–500 µM; for SI (selectivity index): CC50 NHDF / CC50 HT29; for CC50: Homo sapiens, HT-29, HT29, MTT
Procedure: (§1) When the confluence was greater than 70%, adherent cell lines were detached from the bottle surface with a TrypLE solution and then used in assays or reduced. The cells were collected into centrifuge tubes and centrifuged at 1000× g for 5 min at room temperature. The supernatant was removed to dry. The cell pellets were then resuspended in an appropriate medium. The cells were counted using a Bürker chamber and resuspended in 96-well plates to a cell density of 10,000 cells per well for MTT assay. For the rhodamine accumulation test and the detection of apoptosis assay, cells were seeded at a density of 30,000 per well. In the migration assay, cells were seeded at a density of 20,000 per well, and monolayer formation was awaited.
(§2) In this study, normal human dermal fibroblasts (NHDFs), breast cancer cells (MCF7), human lung adenocarcinoma cells (A549), murine fibroblasts (L929), colon adenocarcinoma cells (HT29), and colorectal adenocarcinoma cells (LoVo) were used. All cell lines were cultured in the recommended media. […] The human lung adenocarcinoma cell line A549 and breast cancer cell line MCF-7 were obtained from the ECACC. These cell lines were cultured in Eagle’s minimal essential medium (MEM). Murine fibroblast L929 (Sigma-Aldrich, Merck Group, Headquarters, Darmstadt, Germany; the European Collection of Authenticated Cell Cultures—ECACC) cells were grown in DMEM. […] All media were supplemented with 10% FBS and 100 µg/mL of penicillin–streptomycin.
(§3) All compounds were dissolved in DMSO and the reference drugs were dissolved in physiological saline to concentrations of 10 mM. Concentrations from 1 to 500 μM in the media recommended for the cell lines were prepared for the tests.
(§4) All of the synthesized derivatives were evaluated via the MTT assay. All cell lines were seeded into 96-well plates at a density of 10,000 cells per well. To allow the cells to adhere to the surface of the plates, they were incubated overnight before the application of the test compounds. […] The tests were performed for concentrations of 1, 5, 10, 25, 50, 100, 250, and 500 μM. The solutions of the test compounds were removed from the culture on the 96-well plates. […] The supernatant was then removed. The violet crystal was dissolved in isopropanol for 30 min by shaking. Absorbance was measured at 570 nm.
(§5) Biological assays were performed in three independent replicates, and each replicate used four samples. Three repetitions were made for the ELISA determinations. For the assessment of cytotoxicity, mathematical models were developed using the GraphPad PRISM software, based on which CC50 was determined. The values of CC50 were estimated based on nonlinear regression using the dependence of the biological effect on the molar concentrations of the compounds (four-parameter logistic model with Hill slope).

[4] = system: normal human dermal fibroblasts (NHDF); assay: MTT viability assay, NHDF; format: cell-based; details: tested 1–500 µM
Procedure: as §1, §2, §3, §4, §5

[5] = MTT viability assay, L929; format: cell-based, murine; details: mouse, L929 fibroblasts, tested 1–500 µM
Procedure: as §1, §2, §3, §4, §5

[6] = system: breast adenocarcinoma (MCF7); assay: MTT viability assay, MCF7; format: cell-based, human; details: for SI (selectivity index): CC50 NHDF / CC50 MCF7; for CC50: Homo sapiens
Procedure: as §1, §2, §3, §4, §5

[7] = system: lung adenocarcinoma (A549); assay: MTT viability assay, A549; format: cell-based, human
Procedure: as §1, §2, §3, §4, §5

HT29 [8] = system: HT29; parameters: method as in PMID 32759841; details: estimated based on data taken from reference; cited from earlier work
HT29 cells [9] = assay: Migration (scratch) assay; format: cell-based, human; details: control T 155558.2, control T0 544366.45
Procedure: The scratch test was performed to verify that the tested compound 3g could inhibit the formation of metastases by the HT29 cell line. The seeded HT29 cells were incubated until they formed a monolayer over the entire surface of the well. Then, a scratch test was performed by making a scratch in the monolayer and measuring its width—that is, To, amounting to 544,366.45 μm^2. Freshly prepared compounds were added to the HT29 cells at concentrations of 10, 25, 50, and 100 μM. Breeding plates were incubated for 24 h. The next day, scratch width was measured again using the ImageJ open-source platform. […] The lowest cellular overgrowth of HT29 culture occurred at the concentration of 100 μM for the compound. Compound 3g inhibited the migration of HT29 cells more strongly than the reference drugs, showing that it has the potential to inhibit metastasis. The width of the scratch after 24 h when no compound was applied to the cells was used as a control (T = 155,558.2 μm^2).
as §1, with “All cell lines were grown in 5% CO2 at 95% humidity and 37 °C, with both morphology and confluence assessed twice per week. When” for “When”
After seeding, HT29 cells were incubated until they formed a monolayer over the entire surface of the well. A scratch was made on the surface overgrown with cells, and then photomicrographs of the scratch were taken using the EVOS FL microscope. The freshly prepared compound 3g and the reference drugs were added at concentrations of 10, 25, 50, and 100 µM. Then, they were incubated for 24 h, and micrographs were performed at that time using the EVOS FL microscope. The scratch width was measured using the ImageJ open-source platform. The measurement of scratch width was also performed after 24 h without adding compounds.

[10] = system: HT29 primary colon adenocarcinoma cells; assay: Detection of apoptosis (Annexin V FITC / propidium iodide); format: cell-based, human; parameters: unit not given here; details: 24 h
Procedure: as §1, with “All cell lines were grown in 5% CO2 at 95% humidity and 37 °C, with both morphology and confluence assessed twice per week. When” for “When”
HT29 primary colon adenocarcinoma cells were grown in 96-well plates for 24 h. The 5 selected derivatives were added at concentrations of 1, 2, 5, and 10 µM, and then incubated for 24 h. The mixture of Annexin V conjugated with fluorescein and propidium iodide in PBS with Mg^2+ and Ca^2+ ions (Thermo Fisher Scientific, Waltham, MA, USA) was then applied. The incubation lasted 20 min at 37 °C. Pictures were taken using a fluorescence microscope. Thirteen images were taken from each well using an EVOS FL fluorescence microscope, with three replications for each compound. The open ImageJ space was used to analyze the number of cells. The Thermo Fisher Dead Cell Apoptosis Kit with Annexin V FITC and Propidium Iodide (PI) detects phosphatidylserine extrusion in apoptotic cells using Annexin V conjugated with a green fluorescent FITC dye and dead cells stained by PI with red fluorescence.

[11] = system: metastatic colon adenocarcinoma (LoVo); assay: MTT viability assay, LoVo; format: cell-based, human
Procedure: as §1, §2, §3, §4, §5

[12] = MTT viability assay, NHDF; format: cell-based, human; details: human, normal human dermal fibroblasts (NHDF), tested 1–500 µM
Procedure: as §1, §2, §3, §4, §5

[13] = system: murine fibroblasts (L929); assay: MTT viability assay, L929; format: cell-based; details: tested 1–500 µM
Procedure: as §1, §2, §3, §4, §5

## COc1cc2nccc(Oc3ccc(NC(=O)Nc4cc(C)on4)c(Cl)c3)c2cc1OC [Tivozanib]
MCF7
  IC50: 0.25 ± 0.03 µM
A549; ref 64, read-out: IC50 (converted)
  IC50: 0.19 ± 0.04 µM

## COc1ccc(CCN(C)CCCC(C#N)(c2ccc(OC)c(OC)c2)C(C)C)cc1OC (stereo not shown) [verapamil]
HT29 cells [1]; HT29, treatment 48 h
  intracellular fluorescence intensity of Rh-123, increase: 1.77 fold
HT29 cells [1]; HT29, treatment 72 h
  intracellular fluorescence intensity of Rh-123, increase: 1.9 fold

## CCN(CC)CCNC(=O)c1c(C)[nH]c(/C=C2\C(=O)Nc3ccc(F)cc32)c1C [Sunitinib]
HT29 [2]; ref 78
  IC50: 4.89 µM
HT29 [2]; ref 79
  IC50: 2.25 µM
MCF7
  IC50: 7.3 µM
A549; ref 78, read-out: IC50 (converted)
  IC50: 6.98 µM
LoVo
  IC50: 4.18 ± 0.27 µM

## Cc1noc(N)c1-c1nc2c(NCCCO)ncnc2o1 [Compound 3i, 2-(5-Amino-3-methylisoxazol-4-yl)-7-N-(3-hydroxypropyl)aminooxazolo[5,4-d]pyrimidine]
[3]
  CC50 ± SD: lack cytotoxic activity
[4]
  CC50 ± SD: Non-toxic
[5]
  CC50: 171 ± 22.8 µM
[6]
  SI (selectivity index): >>1
[6]; MCF7, MTT, tested 1–500 µM
  CC50: 251 ± 22.1 µM
other
  melting point: 225 to 226 °C (dec.)

## Cc1noc(N)c1-c1nc2c(NCCO)ncnc2o1 [Compound 3h, 2-(5-Amino-3-methylisoxazol-4-yl)-7-N-(2-hydroxyethyl)aminooxazolo[5,4-d]pyrimidine]
[3]
  CC50 ± SD: lack cytotoxic activity
[4]
  CC50 ± SD: Non-toxic
[5]
  CC50: 146 ± 11.1 µM
[6]; MCF7, MTT, tested 1–500 µM
  CC50 ± SD: no cytotoxic activity
other
  melting point: 213 to 214 °C (dec.)

## CCNc1ncnc2oc(-c3c(C)noc3N)nc12 [Compound 3b, 2-(5-Amino-3-methylisoxazol-4-yl)-7-N-ethylaminooxazolo[5,4-d]pyrimidine]
[3]
  SI (selectivity index): >>1
  CC50: 194 ± 15.4 µM
[4]
  CC50 ± SD: Non-toxic
[5]
  CC50: 235 ± 11.5 µM
[6]
  SI (selectivity index): >>1
[6]; MCF7, MTT, tested 1–500 µM
  CC50: 193 ± 16.9 µM
other
  melting point: 253 to 254 °C (dec.)
[7]; A549, MTT, tested 1–500 µM
  CC50 ± SD: no activity

## Cc1ccc(Nc2nccc(N(C)c3ccc4c(C)n(C)nc4c3)n2)cc1S(N)(=O)=O [Pazopanib]
HT29 [2]; ref 77
  IC50: > 5 µM
MCF7
  IC50: 6.29 µM
A549; ref 75, read-out: IC50 (converted)
  IC50: 4 to 6 µM

## CNC(=O)c1cc(Oc2ccc(NC(=O)Nc3ccc(Cl)c(C(F)(F)F)c3)c(F)c2)ccn1 [Regorafenib]
HT29 [2]; ref 66
  IC50: 2.75 ± 0.18 µM
LoVo
  IC50: 2 µM

## COc1cc2nccc(Oc3ccc(NC(=O)C4(C(=O)Nc5ccc(F)cc5)CC4)cc3)c2cc1OC [Cabozantinib]
HT29 [2]; ref 67
  IC50: 11.5 ± 1.1 µM
MCF7
  IC50: 14.3 ± 0.87 µM
A549; ref 67, read-out: IC50 (converted)
  IC50: 9.52 ± 0.91 µM
A549; ref 68, read-out: IC50 (converted)
  IC50: 15.2 µM

## CNC(=O)c1cc(Oc2ccc(NC(=O)Nc3ccc(Cl)c(C(F)(F)F)c3)cc2)ccn1 [Sorafenib]
HT29 [2]; ref 80
  IC50: 17.3 ± 3.8 µM
A549; ref 80, read-out: IC50 (converted)
  IC50: 5.62 ± 2.13 µM
LoVo
  IC50: 31 µM

## COc1cc2c(Nc3ccc(Br)cc3F)ncnc2cc1OCC1CCN(C)CC1 [Vandetanib]
HT29 [2]; ref 74
  IC50: 10 ± 0.4 µM
MCF7
  IC50: 12.2 ± 0.28 µM
A549; ref 72, read-out: IC50 (converted)
  IC50: 2.7 ± 0.5 µM
LoVo
  IC50: 3.5 ± 0.9 µM

## N.N.[Cl][Pt][Cl] [Cisplatin, reference compound]
HT29 [8]
  CC50: 16.9 ± 1.94 µM
HT29 cells [9]; 10 μM
  scratch width after 24 h, mean: 171562.8 μm^2
HT29 cells [9]; 25 μM
  scratch width after 24 h, mean: 209621 μm^2
HT29 cells [9]; 50 μM
  scratch width after 24 h, mean: 216006.4 μm^2
HT29 cells [9]; 100 μM
  scratch width after 24 h, mean: 253653.8 μm^2
[10]; 1 μM
  apoptosis mean: 4.45
  late apoptosis mean: 26.25
  necrosis mean: 7.81
  percent live (viable) cells: 50.30
[10]; 2 μM
  apoptosis mean: 7.18
  late apoptosis mean: 24.44
  necrosis mean: 4.42
  percent live (viable) cells: 52.47
[10]; 5 μM
  apoptosis mean: 6.28
  late apoptosis mean: 29.59
  necrosis mean: 3.95
  percent live (viable) cells: 59.69
[10]; 10 μM
  apoptosis mean: 2.34
  late apoptosis mean: 16.55
  necrosis mean: 32.35
  percent live (viable) cells: 48.76

## CCCCNc1ncnc2oc(-c3c(C)noc3N)nc12 [Compound 3d, 2-(5-Amino-3-methylisoxazol-4-yl)-7-N-butylaminooxazolo[5,4-d]pyrimidine]
[11]; CC50 NHDF / CC50 LoVo
  SI (selectivity index): 0.558
[11]; Homo sapiens, LoVo, MTT, tested 1–500 µM
  CC50: 226 ± 8.28 µM
[3]
  SI (selectivity index): 0.820
  CC50: 154 ± 13.4 µM
[12]
  CC50: 126 ± 9.87 µM
[13]
  CC50 ± SD: no toxic activity; also recorded: Non-toxic
[6]
  SI (selectivity index): 0.944
[6]; MCF7, MTT, tested 1–500 µM
  CC50: 134 ± 14 µM
other
  melting point: 239 to 240 °C (dec.)
[7]; CC50 NHDF / CC50 A549
  SI (selectivity index): 0.705
[7]; Homo sapiens, A549, MTT, tested 1–500 µM
  CC50: 179 ± 14.9 µM

From PMC9569971, “New Oxazolo[5,4-d]pyrimidines as Potential Anticancer Agents: Their Design, Synthesis, and In Vitro Biological Activity Research” (International Journal of Molecular Sciences, 2022)
